Laboratory results published in patent US20150283233A1, “Compositions and Methods for Enhancing Immune Responses” (Gencia Corporation, priority 2012, published 2015).

Test system: MHC I
Assay: MHC I western blot of orthotopic MiaPaca-2 pancreatic xenografts, with or without gemcitabine
Assay type: in vivo, BALB/c nude mouse
Details: gemcitabine only, 40 mg/kg every 3 days, orthotopic MiaPaca-2 tumors, FIG. 11
Protocol: MiaPaCa-2 tumor cells was maintained in vitro as monolayer culture in DMEM medium supplemented with 10% fetal bovine serum, 2.5% horse serum, 100 Um′ penicillin and 100 μg/ml streptomycin, and 2 mM L-glutamine at 37° C. in an atmosphere of 5% CO2 in air. The tumor cells were routinely subcultured twice weekly by trypsin-EDTA treatment. Cells in an exponential growth phase will be harvested and counted for tumor inoculation. Before orthotopic implantation, 5×10^6 MiaPaca-2 cells in 50 μl PBS mixed with 50 μl Matrigel were inoculated subcutaneously at the right flank of each BALB/c nude mouse. Upon subcutaneous tumor size reaching about 500 mm^3, tumors were collected for orthotopic implantation.
For orthotopic MiaPaca-2 xenografts, mice were anesthetized by intraperitoneal injection of pentobarbital sodium (50 mg/kg) before tumor inoculation. The abdominal skin was sterilized and laparotomy was performed to expose the pancreas. Each mouse was inoculated with a subcutaneous MiaPaca-2 tumor fragment (2-3 mm in diameter) in the subcapsular region of the pancreas for tumor development. The abdominal wall was closed using No. 6 suture and then sterilized with povidone iodine solution. The day of surgery was denoted as Day 0 (D0). The treatments with vehicle, gemcitabine only, PTD-TFAM only, and PTD-TFAM in combination with gemcitabine were started at 10 days post tumor fragment inoculation. […]

In the case of `Nc1ccn([C@@H]2O[C@H](CO)[C@@H](O)C2(F)F)c(=O)n1` [Gemcitabine], the “MHC I expression” value is reported as “decreased”.
